In article PMC4502315, “High Potency of a Novel Resveratrol Derivative, 3,3′,4,4′-Tetrahydroxy-trans-stilbene, against Ovarian Cancer Is Associated with an Oxidative Stress-Mediated Imbalance between DNA Damage Accumulation and Repair” (Oxidative Medicine and Cellular Longevity, 2015):

Legend:
A2780 = assay: LDH release assay, A2780; assay type: cell-based; conditions: Homo sapiens, 24 h; for IC50: CalcuSyn
Method: As per LDH release, the measurements were performed using the commercially available Pierce LDH Cytotoxicity Assay Kit (Pierce Biotechnology, Rockford, IL, USA). In this assay, cells with damaged plasma membranes release LDH into the culture environment; then the enzyme catalyses the conversion of lactate to pyruvate, which is accompanied by a reduction of NAD^+ to NADH. Afterwards, diaphorase uses NADH to reduce a tetrazolium salt to a formazan whose level is proportional to LDH activity. The absorbance emitted by the formazan was monitored at 490 nm with a reference wavelength of 680 nm.
In order to examine the effect of 3,3′,4,4′-THS on the viability of ovarian cancer cells and to compare its activity with RVT, subconfluent cultures of A2780, OVCAR-3, and SKOV-3 cells were subjected to a wide range of stilbene concentrations (0–500 μM) for 24 h; then MTT and LDH release assays were performed.

[1] = system: ovarian cancer cells (A2780, OVCAR-3, SKOV-3); assay: Efficiency of 8-OH-dG repair after 24-h recovery, ovarian cancer cells; assay type: cell-based, human; conditions: all three cancer cell lines; 24-h stilbene exposure then 24-h recovery
Method: (§1) Oxidative DNA damage was assessed by measuring the 8-OH-dG concentration with a competitive immunoassay (Cell Biolabs Inc.), as per manufacturer's instructions. The efficiency of 8-OH-dG repair was estimated after cell recovery for 24 h in standard growth medium. In order to examine the activity of DNA glycosylase I, reverse transcription PCR was performed. RNA extraction was carried out using the RNA Bee (Tel-Test, Friendswood, Texas, USA) and purified according to the manufacturer's protocol. One microgram of RNA was reverse transcribed into cDNA with random hexamer primers, and cDNA was subjected to PCR. The profile of the replication cycles was denaturation at 94°C for 50 s, annealing at 58°C for 50 s, and polymerization at 72°C for 1 min. In each reaction, the expression of glyceraldehyde-3-phosphate dehydrogenase (GAPDH) served as the internal control. The primers used for PCR were as follows: hOGG1 forward, 5′-[…]-3′; hOGG1 reverse, 5′-TAGCCCGCCCTGTTCTTC-3′ designed to amplify a 551-bp region; GAPDH forward, 5′-CCATGGAGAAGGCTGGGG-3′; and GAPDH reverse 5′-[…]-3′ designed to amplify a 194-bp region (total number of cycles: 28). The PCR products were separated on 3% agarose gels stained with ethidium bromide and then visualized.
The cancer cells were treated with RVT and 3,3′,4,4′-THS to cause DNA injury; then they were washed and kept in standard growth medium to recover.

catalase (CAT) [2] = assay: CAT activity, OVCAR-3; assay type: cell-based, human; conditions: 24 h, 10, 50, 100 μM tested
Method: (§2) Total activity of superoxide dismutase (SOD) was measured in cell lysates with a commercially available kit (R&D Systems Europe, Abingdon, UK), while the activity of catalase (CAT) was estimated by using the OxiSelect Catalase Activity Assay Kit (Cell Biolabs Inc., San Diego, CA, USA). Both assays were performed according to the manufacturer's instructions.

HPMCs [3] = assay: Oxidative DNA damage (8-OH-dG immunoassay), HPMCs; assay type: cell-based, human; conditions: 24 h, percentage of control cells
Method: as §1

HOSE cells [4] = assay: LDH release assay, HOSE cells; assay type: cell-based, human; conditions: Homo sapiens, 24 h, CalcuSyn
A2780 cells = assay: Apoptosis (Hoechst 33258), A2780; assay type: cell-based, human; conditions: 24 h, 10, 50, 100 μM tested
Method: (§3) Identification of apoptosis was based on the presence of DNA condensation in cells stained with a fluorescent dye, Hoechst 33258 (Molecular Probes, Eugene, OR). Cells were grown on Lab-Tek Chamber Slides (Nunc, Roskilde, Denmark), fixed with 4% formaldehyde for 10 min and washed twice with PBS. Then the cells were incubated with Hoechst 33258 (0.1 μg/mL) for 5 min in the dark. After washing with PBS, stained nuclei were observed and counted under a Zeiss Axio Observer D1 fluorescence microscope (Carl Zeiss, Jena, Germany). The activity of caspases 3, 8, and 9 was quantified in the cell lysates using specific colorimetric kits (Abcam, Cambridge, UK) according to the manufacturer's instructions.

OVCAR-3 cells = assay: Cell proliferation (CFDA SE), OVCAR-3; assay type: cell-based, human; conditions: low-density cultures, 24 h, 10, 50, 100 μM tested
Method: (§4) Cell proliferative potential was determined using Cell Proliferation Kit I (PromoKine, Heidelberg, Germany) according to the manufacturer's instructions. In brief, cells were probed for 15 min with 5-(and 6)-carboxyfluorescein diacetate, a succinimidyl ester (CFDA SE; 2 μM) which diffuses into cells, covalently binds to proteins, and becomes fluorescent upon its hydrolysis by intracellular esterases. The fluorescence emitted by the cells (the dye is inherited by the daughter cells through successive divisions) was recorded using a Victor2 spectrofluorometer (Perkin-Elmer, Turku, Finland) with excitation at 435 nm and emission at 535 nm.

[5] = system: superoxide dismutase (SOD); assay: SOD activity in cell lysates, HPMCs; assay type: cell-based, human; conditions: 24 h, percentage of control cells
Method: as §2

HPMCs [6] = assay: Cell proliferation (CFDA SE), HPMCs; assay type: cell-based, human; conditions: 24 h, percentage of control cells
Method: as §4

p38 MAPK [7] = assay: p38 MAPK activation (FACE ELISA), HOSE cells; assay type: cell-based, human; conditions: 24 h, percentage of control cells
Method: (§5) Activation of p38 MAPK was examined using the Fast Activated Cell-Based ELISA (FACE) p38 kit (Active Motif) according to the manufacturer's instructions. In brief, cells were fixed with 4% formaldehyde and incubated with a primary antibody that recognizes either phosphorylated p38 or total p38 overnight at 4°C. Then the cells were washed and incubated with a secondary HRP-conjugated antibody for 1 h at room temperature. The color reaction that developed was read using a spectrofluorometer at 450 nm wavelength.
(§6) The results were expressed as a ratio of phosphorylated to total p38 activity.

HOSE cells [8] = assay: Apoptosis (Hoechst 33258), HOSE cells; assay type: cell-based, human; conditions: 24 h, percentage of control cells
Method: as §3

p38 MAPK [9] = assay: p38 MAPK activation (FACE ELISA), SKOV-3; assay type: cell-based, human; conditions: 24 h, 10, 50, 100 μM tested
Method: as §5, §6

p38 MAPK [10] = assay: p38 MAPK activation (FACE ELISA), HPMCs; assay type: cell-based, human; conditions: 24 h, percentage of control cells
Method: as §5, §6

catalase (CAT) [11] = assay: CAT activity, A2780; assay type: cell-based, human; conditions: 24 h, 10, 50, 100 μM tested
Method: as §2

HPMCs [12] = assay: Apoptosis (Hoechst 33258), HPMCs; assay type: cell-based, human; conditions: 24 h, percentage of control cells
Method: as §3

With Oc1ccc(/C=C/c2ccc(O)c(O)c2)cc1O [3,3′,4,4′-THS, 3,3′,4,4′-tetrahydroxy-trans-stilbene] the viability at 10 µM (A2780; 10 μM, percentage of control cells) was 42 ± 3%, the viability at 50 µM (A2780; 50 μM, percentage of control cells) was 26 ± 3% and the viability at 100 µM (A2780; 100 μM, percentage of control cells) was 22 ± 3%. The IC50 (A2780) was 6 µM, the “8-OH-dG level after 24-h recovery in standard growth medium, in words” value [1] was “still markedly higher than in the unstimulated cells” and the “CAT activity, effect in words” value (catalase (CAT) [2]) was “upregulated it in the OVCAR-3 cells at 10 μM, reduced it at 50 and 100 μM”. For the same molecule, the 8-OH-dG (HPMCs [3]; 10 μM) was 91 ± 2^∗# %, the 8-OH-dG (HPMCs [3]; 50 μM) was 88 ± 3^∗# % and the 8-OH-dG (HPMCs [3]; 100 μM) was 76 ± 3^∗# %. The IC50 (HOSE cells [4]) was 532 µM, the “incidence of apoptosis (rise in percentage of death cells), effect in words” value (A2780 cells) was “evident starting from the lowest concentration of 10 μM” and the “proliferation, effect in words” value (OVCAR-3 cells) was “evident at as low a concentration as 10 μM”. For the same molecule, the SOD ([5]; 10 μM) was 122 ± 4^∗# %, the SOD ([5]; 50 μM) was 141 ± 3^∗# % and the SOD ([5]; 100 μM) was 136 ± 4^∗# %. The Proliferation (HPMCs [6]; 10 μM) was 141 ± 3^∗# %, the Proliferation (HPMCs [6]; 50 μM) was 103 ± 1% and the Proliferation (HPMCs [6]; 100 μM) was 102 ± 2%. The “p38 MAPK” value (p38 MAPK [7]; 10 μM) was 106 ± 5%, the “p38 MAPK” value (p38 MAPK [7]; 50 μM) was 104 ± 4% and the “p38 MAPK” value (p38 MAPK [7]; 100 μM) was 100 ± 3%. For the same molecule, the Apoptosis (HOSE cells [8]; 10 μM) was 101 ± 1%, the Apoptosis (HOSE cells [8]; 50 μM) was 100 ± 2% and the Apoptosis (HOSE cells [8]; 100 μM) was 102 ± 2%. The “p38 MAPK activity (phosphorylated/total), effect in words” value (p38 MAPK [9]) was “exerted upregulatory activity at 50 and 100 μM”, the “p38 MAPK” value (p38 MAPK [10]; 10 μM) was 82 ± 3^∗# % and the “p38 MAPK” value (p38 MAPK [10]; 50 μM) was 81 ± 6^∗# %. The “p38 MAPK” value (p38 MAPK [10]; 100 μM) was 104 ± 2%, the “CAT activity, effect in words” value (catalase (CAT) [11]) was “did not change CAT activity” and the Apoptosis (HPMCs [12]; 10 μM) was 98 ± 2%. It also gave an Apoptosis (HPMCs [12]; 50 μM) of 102 ± 2% and an Apoptosis (HPMCs [12]; 100 μM) of 100 ± 4%.
Oc1ccc(/C=C/c2cc(O)cc(O)c2)cc1 [RVT, 3,4′,5-trihydroxy-trans-stilbene, reference compound] was tested, and the IC50 (A2780) was 65 µM, the “8-OH-dG level after 24-h recovery in standard growth medium, in words” value [1] was “returned to basal values within 24 h” and the “CAT activity, effect in words” value (catalase (CAT) [2]) was “stimulated the enzyme at 10 μM in the OVCAR-3 cells, at 50 μM in the A2780, OVCAR-3, and SKOV-3 cells, and at 100 μM in the OVCAR-3 and SKOV-3 cells”. The 8-OH-dG (HPMCs [3]; 10 μM) was 103 ± 3%, the 8-OH-dG (HPMCs [3]; 50 μM) was 103 ± 2% and the 8-OH-dG (HPMCs [3]; 100 μM) was 102 ± 5%. The IC50 (HOSE cells [4]) was 421 µM, the “incidence of apoptosis (rise in percentage of death cells), effect in words” value (A2780 cells) was “exhibiting its impact at concentrations of 50 and 100 μM for the A2780 and SKOV-3 cells” and the “proliferation, effect in words” value (OVCAR-3 cells) was “effectively reduced the expandability”. The SOD ([5]; 10 μM) was 110 ± 2^∗ %, the SOD ([5]; 50 μM) was 112 ± 3^∗ % and the SOD ([5]; 100 μM) was 113 ± 2^∗ %. For the same molecule, the Proliferation (HPMCs [6]; 10 μM) was 99 ± 3%, the Proliferation (HPMCs [6]; 50 μM) was 103 ± 4% and the Proliferation (HPMCs [6]; 100 μM) was 102 ± 2%. The “p38 MAPK” value (p38 MAPK [7]; 10 μM) was 103 ± 5%, the “p38 MAPK” value (p38 MAPK [7]; 50 μM) was 107 ± 10% and the “p38 MAPK” value (p38 MAPK [7]; 100 μM) was 108 ± 11%. For the same molecule, the Apoptosis (HOSE cells [8]; 10 μM) was 99 ± 2%, the Apoptosis (HOSE cells [8]; 50 μM) was 101 ± 2% and the Apoptosis (HOSE cells [8]; 100 μM) was 102 ± 3%. The “p38 MAPK activity (phosphorylated/total), effect in words” value (p38 MAPK [9]) was “failed to activate p38 MAPK”, the “p38 MAPK” value (p38 MAPK [10]; 10 μM) was 113 ± 16% and the “p38 MAPK” value (p38 MAPK [10]; 50 μM) was 103 ± 2%. For the same molecule, the “p38 MAPK” value (p38 MAPK [10]; 100 μM) was 105 ± 7%, the “CAT activity, effect in words” value (catalase (CAT) [11]) was “stimulated the enzyme at 10 μM in the OVCAR-3 cells, at 50 μM in the A2780, OVCAR-3, and SKOV-3 cells, and at 100 μM in the OVCAR-3 and SKOV-3 cells” and the Apoptosis (HPMCs [12]; 10 μM) was 101 ± 1%. The Apoptosis (HPMCs [12]; 50 μM) was 101 ± 1% and the Apoptosis (HPMCs [12]; 100 μM) was 98 ± 3%.
